This is an account of results in ChEMBL document CHEMBL1125524, “Adenosine A1 antagonists. 2. Structure-activity relationships on diuretic activities and protective effects against acute renal failure” (J Med Chem, 1992).

Test [1] concerns Rattus norvegicus. Description: Serum creatinine concentration measured after intraperitoneal administration of 1 mg/kg of compound to rats(vehicle 5.07+/-0.33). It counts as functional.
Test [2] relates to Rattus norvegicus. Description: Serum creatinine concentration measured after intraperitoneal administration of 10 mg/kg of compound to rats(vehicle 5.53+/-0.34). It counts as functional.
The test system of test [3] is Rattus norvegicus. In words: Urea nitrogen concentration measured after intraperitoneal administration of 1 mg/kg of compound to rats(vehicle 195.8+/-14.4). Type of test: functional.
The test system of test [4] is Rattus norvegicus. In words: Percent inhibition of serum creatinine by the compound given as ratio of Cr value in treated to vehicle treated ones after intraperitoneal administration of 10 mg/kg of compound to rats(vehicle 5.53+/-0.34). It counts as functional. The note with it: ip.
For test [5], the system named is Rattus norvegicus. In words: Effect on urinary excretion potassium and sodium after oral administration of 25 mg/kg to rats(potassium and sodium excretion in control rat is 0.265+/-0.099). Type of test: functional, Urine.
The subject of test [6] is Rattus norvegicus. In words: Ratio of urinary excretion value (urinary volume) in treated rats to that in control rats, at a peroral dose of 25 mg/Kg. It counts as functional, Urine.
The subject of test [7] is Rattus norvegicus. Description: Ratio of sodium ion/potassium ion concentration in treated rats to that in control rats, at a peroral dose of 25 mg/Kg. It counts as functional.
For test [8], the system named is Rattus norvegicus. Description: Ratio of urinary excretion value (Na+ concentration) in treated rats to that in control rats, at a peroral dose of 25 mg/Kg. It counts as functional, Urine.
Test [9] has as its system Rattus norvegicus. In words: Ratio of urinary excretion value (Na+ concentration) in treated rats to that in control rats, at a peroral dose of 6.25 mg/Kg. It counts as functional, Urine.
The subject of test [10] is Rattus norvegicus. Description: Oral diuretic activity was measured after oral administration of 25 mg/kg to rats(control volume is 1.64+/-0.7). Type of test: functional, Urine.
In test [11] the test system is Rattus norvegicus. Description: Urea nitrogen concentration measured after intraperitoneal administration of 10 mg/kg of compound to rats(vehicle 177.4+/-5.3). It counts as functional.
The subject of test [12] is Rattus norvegicus. In words: Percent inhibition of Urea nitrogen by the compound given as ratio of UN value in treated to vehicle treated ones after intraperitoneal administration of 10 mg/kg of compound to rats(vehicle 177.4+/-5.3). The note with it: ip. It counts as functional.
Test [13] concerns Rattus norvegicus. In words: Percent inhibition of Urea nitrogen by the compound given as ratio of UN value in treated to vehicle treated ones after intraperitoneal administration of 1 mg/kg of compound to rats(vehicle 195.8+/-14.4). It counts as functional. The note with it: Rattus norvegicus, ip.
Test [14] has as its system Rattus norvegicus. Description: Ratio of urinary excretion value (urinary volume) in treated rats to that in control rats, at a peroral dose of 6.25 mg/Kg. Type of test: functional, Urine.
The target in a further test is Adenosine A2 receptor (Rattus norvegicus, UniProt P29276+P30543).
The species entered for test [15] is Rattus norvegicus. Description: animal or person. The note with it: ip, read-out: Inhibition, dose 1 mg/kg, route intraperitoneal.
The test system of test [16] is Rattus norvegicus. Description: Serum creatinine concentration measured after intraperitoneal administration of 1 mg/kg of compound to rats(vehicle 4.70+/-0.17). Type of test: functional.
In test [17] the test system is Rattus norvegicus. In words: Serum creatinine concentration measured after intraperitoneal administration of 10 mg/kg of compound to rats(vehicle 4.41+/-0.16). Type of test: functional.
The subject of test [18] is Rattus norvegicus. Description: Percent inhibition of serum creatinine by the compound given as ratio of Cr value in treated to vehicle treated ones after intraperitoneal administration of 1 mg/kg of compound to rats(vehicle 4.70+/-0.17). Type of test: functional. The note with it: ip.
Test [19] deals with Rattus norvegicus. In words: Percent inhibition of serum creatinine by the compound given as ratio of Cr value in treated to vehicle treated ones after intraperitoneal administration of 10 mg/kg of compound to rats(vehicle 4.41+/-0.16). It counts as functional. The note with it: ip.
The subject of test [20] is Rattus norvegicus. In words: Urea nitrogen concentration measured after intraperitoneal administration of 1 mg/kg of compound to rats(vehicle 154.2+/-5). It counts as functional.
Test [21] deals with Rattus norvegicus. In words: Effect on urinary excretion potassium and sodium after oral administration of 25 mg/kg to rats(potassium and sodium excretion in control rat is 0.180+/-0.014). Type of test: functional, Urine.
For test [22], the system named is Rattus norvegicus. In words: Oral diuretic activity was measured after oral administration of 25 mg/kg to rats(control volume is 1.21+/-0.08). Type of test: functional, Urine.
The test system of test [23] is Rattus norvegicus. In words: Urea nitrogen concentration measured after intraperitoneal administration of 10 mg/kg of compound to rats(vehicle 145.1+/-7.4). Type of test: functional.
Test [24] has as its system Rattus norvegicus. Description: Percent inhibition of Urea nitrogen by the compound given as ratio of UN value in treated to vehicle treated ones after intraperitoneal administration of 10 mg/kg of compound to rats(vehicle 145.1+/-7.4). The note with it: ip. It counts as functional.
Test [25] concerns Rattus norvegicus. In words: Percent inhibition of Urea nitrogen by the compound given as ratio of UN value in treated to vehicle treated ones after intraperitoneal administration of 1 mg/kg of compound to rats(vehicle 154.2+/-5). It counts as functional. The note with it: ip.
Test [26] concerns Rattus norvegicus. In words: Serum creatinine concentration measured after intraperitoneal administration of 10 mg/kg of compound to rats(vehicle 3.22+/-0.35). Type of test: functional.
The subject of test [27] is Rattus norvegicus. Description: Ratio of urinary excretion value (urinary volume) in treated rats to that in control rats, at a peroral dose of 1.6 mg/Kg. Type of test: functional, Urine.
Test [28] concerns Rattus norvegicus. Description: Ratio of sodium ion/potassium ion concentration in treated rats to that in control rats, at a peroral dose of 1.6 mg/Kg. Type of test: functional.
Test [29] relates to Rattus norvegicus. In words: Ratio of urinary excretion value (Na+ concentration) in treated rats to that in control rats, at a peroral dose of 1.6 mg/Kg. It counts as functional, Urine.
Test [30] concerns Rattus norvegicus. Description: Percent inhibition of serum creatinine by the compound given as ratio of Cr value in treated to vehicle treated ones after intraperitoneal administration of 10 mg/kg of compound to rats(vehicle 3.22+/-0.35). Type of test: functional. The note with it: ip.
Test [31] relates to Rattus norvegicus. Description: Percent inhibition of Urea nitrogen by the compound given as ratio of UN value in treated to vehicle treated ones after intraperitoneal administration of 10 mg/kg of compound to rats(vehicle 110.7+/-9.4). It counts as functional. The note with it: ip.

Bounds are passed on as bounds.

One may read the Ki as a dissociation constant, usually derived from enzyme kinetics or from competition with a known ligand. High values mean weaker binding, low ones tighter binding. In the case of `CCCn1c(=O)[nH]c(=O)c2[nH]c(C34CC5CC(CC3C5)C4)nc21`, the Cr in the test on Rattus norvegicus [1] was determined as 4.33 mg/dL; with Rattus norvegicus [2], 2.83 mg/dL. Also, the values for the UN in the test on Rattus norvegicus [3] and in the test on Rattus norvegicus [11] were 164.9 mg/dL and 107.4 mg/dL, respectively. The inhibition in vivo at 10 mg/kg with Rattus norvegicus [4] amounted to 49%; in the test on Rattus norvegicus [12] it was 39%. The same compound registered a Na in the test with Rattus norvegicus [5] of 0.4 m equiv 6hr-1 100g-1. Moreover, the T/C in the test with Rattus norvegicus [6] was found to be 1.43; in the test with Rattus norvegicus [8], 1.51; in the test with Rattus norvegicus [9] it was 1.49; in the test on Rattus norvegicus [14], 1.26. For the same compound, the “Na+/K+” value with Rattus norvegicus [7] amounted to 1.29. Also, the Urine volume in the test on Rattus norvegicus [10] came to 2.34 ml 6hr-1 100g-1. Further, the values for the inhibition in vivo at 1 mg/kg with Rattus norvegicus [13] and in the test listed under Rattus norvegicus [15] were 16% and 15%, respectively. Also, the Ki at Adenosine A2 receptor is more than 100 µM.
With `Cn1c(=O)c2c(ncn2C)n(C)c1=O` [CAFFEINE], the Cr was 3.68 mg/dL in the test with Rattus norvegicus [16] and 2.85 mg/dL in the test with Rattus norvegicus [17]. Besides, the inhibition in vivo at 1 mg/kg in the test on Rattus norvegicus [18] worked out at 22%; in the test on Rattus norvegicus [25], 18%. Moreover, the figures for the inhibition in vivo at 10 mg/kg in the test on Rattus norvegicus [19] and with Rattus norvegicus [24] were 35% and 25%, respectively. Moreover, the T/C was 1.68 in the test with Rattus norvegicus [6], 1.55 in the test with Rattus norvegicus [8], 1.1 in the test with Rattus norvegicus [9] and 0.92 in the test with Rattus norvegicus [14]. The UN with Rattus norvegicus [20] stood at 125.7 mg/dL; with Rattus norvegicus [23] it was 109 mg/dL. The “Na+/K+” value in the test with Rattus norvegicus [7] is 1.28. The compound further had a Na with Rattus norvegicus [21] of 0.28 m equiv 6hr-1 100g-1. Also, the Urine volume in the test with Rattus norvegicus [22] is 1.84 ml 6hr-1 100g-1.
The compound `NS(=O)(=O)c1cc(C(=O)O)c(NCc2ccco2)cc1Cl` [FUROSEMIDE] returned a Cr in the test on Rattus norvegicus [26] of 4.17 mg/dL. The T/C came out at 1 with Rattus norvegicus [27]; 1.75 with Rattus norvegicus [6]; 0.94 in the test with Rattus norvegicus [29]; 1.64 in the test with Rattus norvegicus [8]; 1.62 in the test on Rattus norvegicus [9]; 1.59 in the test on Rattus norvegicus [14]. The “Na+/K+” value in the test on Rattus norvegicus [28] is listed as 0.87; with Rattus norvegicus [7], 1.05. For the same compound, the inhibition in vivo at 10 mg/kg was -30% in the test on Rattus norvegicus [30] and -36% in the test on Rattus norvegicus [31]. Besides, in the test on Rattus norvegicus [22], the Urine volume was 2.12 ml 6hr-1 100g-1.
